Laboratory results as given in paper PMC8175350, “Drug repurposing screens identify chemical entities for the development of COVID-19 interventions” (Nature Communications, 2021).
Structures can show the parent of a compound that is named as a salt. Where two headings read alike, the source gives them in different places.

How the values were obtained:
[1] = in vitro; settings: human; for CC50: Calu-3 uninfected cytotoxicity CC50 GeoMean
[2] = Uninfected HeLa-ACE2 24 h live/dead cytotoxicity counter screen; type: cell-based, human; settings: human, uninfected HeLa-ACE2 cells
[3] = system: SARS-CoV-2; assay: microbe, parasite or virus in culture; type: cell-based
[4] = system: SARS-CoV-2; assay: microbe, parasite or virus in culture; type: cell-based; settings: for Emax: Severe acute respiratory syndrome coronavirus 2, Calu-3, 48 h
[5] = system: HeLa-ACE2 cells; assay: cells; settings: Homo sapiens
[6] = system: Calu-3 cells; settings: for Calu-3 uninfected cytotoxicity Sinf Average (%): 48 h
[7] = system: Calu-3 cells; assay: cells; settings: Homo sapiens; for Emax: Calu-3, 48 h
[8] = system: HeLa-ACE2 cells; assay: Uninfected HeLa-ACE2 24 h live/dead cytotoxicity counter screen; type: cell-based, human; settings: Sinf average of the curves
[9] = system: SARS-CoV-2; assay: microbe, parasite or virus in culture; type: cell-based; settings: HeLa-ACE2
[10] = unrounded geometric mean, read-out: HeLa-ACE2 uninfected cytotoxicity CC50 GeoMean
[11] = curve-fit effect at infinite concentration, average, read-out: Calu-3 CoV-2 Sinf Average
[12] = Severe acute respiratory syndrome coronavirus 2, Calu-3, unrounded geometric mean, read-out: Calu-3 CoV-2 EC50 GeoMean
[13] = read-out: Calu-3 cell count Sinf Average
[14] = geometric mean of replicates, read-out: HeLa-ACE2 uninfected cytotoxicity CC50 GeoMean
[15] = Severe acute respiratory syndrome coronavirus 2, HeLa-ACE2, geometric mean of replicates, read-out: HeLa-ACE2 CoV-2 EC50 GeoMean
[16] = Sinf average of the curves, read-out: Calu-3 CoV-2 Sinf Average (%)
[17] = Severe acute respiratory syndrome coronavirus 2, Calu-3, geometric mean of replicates, read-out: Calu-3 CoV-2 EC50 GeoMean
[18] = HeLa-ACE2, read-out: HeLa-ACE2 cell count EC50 GeoMean (µM), geometric mean of replicates
[19] = read-out: Calu-3 cell count Sinf Average (%)
[20] = Calu-3, read-out: Calu-3 cell count EC50 GeoMean (µM), geometric mean of replicates
[21] = Calu-3 uninfected cytotoxicity CC50 GeoMean (µM)
[22] = reconfirmed hits, read-out: HeLa-ACE2 Uninf. cells CC50
[23] = Severe acute respiratory syndrome coronavirus 2, HeLa-ACE2, reconfirmed hits, read-out: HeLa-ACE2 SARS-CoV-2 EC50
[24] = Severe acute respiratory syndrome coronavirus 2, Calu-3, reconfirmed hits, read-out: Calu-3 SARS-CoV-2 EC50

SMILES | CC50 at 24 h [2, 14] [µM] | EC50 [3, 15] [µM] | Emax [4, 16] [%] | EC50 [4, 17] [µM] | EC50 [5, 18] [µM] | Emax [7, 19] [%] | EC50 [7, 20] [µM] | CC50 at 48 h [1, 21] [µM] | uninfected Calu-3 CC50 [μM] [6] | CC50 at 48 h ([1]; Calu-3 Uninf. cells CC50 (µM)) [µM] | CC50 at 24 h [2, 22] [µM] | EC50 [3, 23] [µM] | EC50 [4, 24] [µM] | other results
CCc1ccc(C2=CC(C)(C)Sc3ccc(C#Cc4ccc(C(=O)O)cc4)cc32)cc1 [AGN-194310] | – | – | – | – | – | – | – | – | – | – | – | – | – | CC50 [1]: > 29.9 µM; CC50 at 24 h [2, 10]: > 39.8 µM; EC50 ([3]; Severe acute respiratory syndrome coronavirus 2, HeLa-ACE2, read-out: HeLa-ACE2 CoV-2 EC50 GeoMean): > 9.59 µM; Emax [4, 11]: 85%; EC50 [4, 12]: 0.597 µM; EC50 ([5]; HeLa-ACE2, read-out: HeLa-ACE2 cell count EC50 GeoMean): > 9.59 µM; uninfected Calu-3 CC50 [6]: > 29.867 ×÷ 1 (n=3) μM; Calu-3 uninfected cytotoxicity Sinf Average ([6]; human): -100%; Emax [7, 13]: 100%; EC50 ([7]; Calu-3, read-out: Calu-3 cell count EC50 GeoMean): > 7.77 µM
CCCCCC[C@H]1C(=O)O[C@H](C)[C@H](NC(=O)c2cccc(NC=O)c2O)C(=O)O[C@@H](C)[C@@H]1OC(=O)CC(C)C [Antimycin A] | > 39.8 | > 9.59 | 93 | < 0.0277 | > 9.59 | 48 | 0.22 | – | – | – | – | – | – | HeLa-ACE2 uninfected cytotoxicity Sinf Average (%) [8]: -100%; Calu-3 uninfected cytotoxicity CC50 GeoMean ([6]; human): > 0.6084 µM; uninfected Calu-3 CC50 [μM] ([6]; human): > 0.608 ×÷ 246.09 (n=2) μM
O=c1[nH]c2ccc(C(F)(F)F)cc2c(-c2cc(Cl)ccc2O)c1CCO [BMS-223131] | 21.4 | > 9.59 | 100 | 5.14 | > 9.59 | 100 | > 9.98 | > 29.9 | > 29.867 ×÷ 1 (n=3) μM | – | – | – | – | HeLa-ACE2 uninfected cytotoxicity Sinf Average (%) [8]: -100%; Calu-3 uninfected cytotoxicity Sinf Average (%) ([6]; human): -100%
CN(C)C(=O)COC(=O)Cc1ccc(OC(=O)c2ccc(NC(=N)N)cc2)cc1 [Camostat mesylate] | – | – | – | – | – | – | – | – | – | – | – | – | – | CC50 ([1]; unrounded geometric mean): > 29.9 µM; CC50 at 24 h [2, 10]: > 39.8 µM; EC50 ([3]; Severe acute respiratory syndrome coronavirus 2, HeLa-ACE2, unrounded geometric mean, read-out: HeLa-ACE2 CoV-2 EC50 GeoMean): > 9.59 µM; Emax [4, 11]: 89%; EC50 [4, 12]: 0.0536 µM; EC50 ([5]; HeLa-ACE2, read-out: HeLa-ACE2 cell count EC50 GeoMean, unrounded geometric mean): > 9.59 µM; Emax [7, 13]: 78%; EC50 ([7]; Calu-3, read-out: Calu-3 cell count EC50 GeoMean, unrounded geometric mean): 0.0913 µM
N=C(N)Nc1ccc(C(=O)Oc2ccc(S(N)(=O)=O)cc2)cc1 [Ono-3307] | > 39.8 | > 9.59 | 96 | 1.6 | > 9.59 | 99 | 3.58 | > 29.9 | > 29.867 ×÷ 1 (n=3) μM | > 30 | > 40 | > 9.6 | 1.6 | –
C=CC(=O)Nc1cc(Nc2nccc(-c3cn(C)c4ccccc34)n2)c(OC)cc1N(C)CCN(C)C [Osimertinib] | – | – | – | – | – | – | – | – | – | – | – | – | – | SI in Calu-3 ([4]; CC50/EC50): < 2; EC50 ratio between the standard 24 h and the TOA assay [9]: > 8
CC(=O)N1C[C@H](O)C[C@H]1C(=O)N[C@@H](CCCNC(=N)N)C(=O)c1nc2ccccc2s1 [RWJ-56423] | > 39.8 | > 9.59 | 89 | 1.23 | > 9.59 | 100 | 2.85 | > 29.9 | > 29.867 ×÷ 1 (n=3) μM | > 30 | > 40 | > 9.6 | 1.23 | –
N=C(N)c1ccc2cc(OC(=O)c3ccc(CNC(=O)CCCC(=O)O)o3)ccc2c1 [TO-195] | > 39.8 | > 6.42 | 91 | 0.657 | > 9.59 | 84 | 1.16 | > 29.9 | > 29.867 ×÷ 1 (n=3) μM | > 30 | > 40 | > 6.4 | 0.657 | Calu-3 uninfected cytotoxicity Sinf Average (%) ([6]; human): -100%
NC(N)=Nc1ncc(Cl)c2ccc(-c3cccc(C(=O)O)c3)cc12 [UK-356202] | > 39.8 | > 9.59 | 85 | 1.92 | > 9.59 | 98 | > 7.28 | > 29.9 | > 29.875 ×÷ 1 (n=2) μM | – | – | – | – | –
CC(=N)N1CCC(Oc2ccc(N(Cc3ccc4ccc(C(=N)N)cc4c3)S(=O)(=O)CC(=O)O)cc2)CC1 [YM 60828] | > 39.8 | > 9.59 | – | 3.18 | > 9.59 | 100 | 6.81 | > 29.9 | > 29.867 ×÷ 1 (n=3) μM | – | – | – | – | –
